Data reported in patent publication US12357636B2 (Urovant Sciences GmbH, priority 2018, dated 2025).
Like-named read-outs stand apart in the source and are kept apart here.

How the values were obtained:
[1] = PK in moderate hepatic impairment, single dose 100 mg; format: in vivo, human; details: single 100 mg, healthy matched control subjects
[2] = system: men and women with OAB; experiment: Phase 2b study in OAB: efficacy (voiding diary); format: in vivo, human; details: OAB Wet
Source text: Part 2 was designed to continue to assess the safety and efficacy of concomitant dosing. […] Subjects in both Part 1 and Part 2 had the option of enrolling in a 1-year extension. Participants were required to keep a voiding diary, recording the occurrence of each strong urge, total incontinence, and urge incontinence episode. Efficacy data for Part 1 and Part 2 are summarized herein.
The total number of urgency incontinence episodes must have exceeded the total number of stress incontinence episodes for all subjects.
Conversely, a dose dependent effect on urge incontinence or total incontinence was not observed.

[3] = system: patients with overactive bladder
Source text: A placebo group was included in the main study, and a group that received tolterodine monotherapy was included in the main study and in the extension.

[4] = system: patients with OAB; experiment: Phase 2b study: cardiovascular safety, orthostatic AEs, blood pressure and heart rate changes (Table 17); format: in vivo, human; details: for DBP Change from Baseline [≥] 5 mm Hg, n/N (%) / DBP Change from Baseline [≥] 10 mm Hg, n/N (%) / DBP Change from Baseline ≥15 mm Hg, n/N (%) / HR Change from Baseline [≥] 10 bpm, n/N (%) / HR Change from Baseline ≥5 bpm, n/N (%) / HR Change from Baseline ≥15 bpm, n/N (%) / SBP Change from Baseline [≥] 5 mm Hg, n/N (%) / SBP Change from Baseline [≥] 10 mm Hg, n/N (%) / SBP Change from Baseline ≥15 mm Hg, n/N (%): counts based on 3 consecutive post-baseline visits; for DBP Change from Baseline, Mean (95% CI) Max / HR Change from Baseline, Mean (95% CI) Maximum / SBP Change from Baseline, Mean (95% CI) Maximum: mean maximum from week 1 to 8
Source text: None led to discontinuation. The overall incidence of orthostatic symptoms was low.
Small differences in the percent of subjects exceeding categorical heart rate and blood pressure thresholds for vibegron were similar to those in the tolterodine arm.

**Q.** For O=C(Nc1ccc(C[C@@H]2CC[C@H]([C@H](O)c3ccccc3)N2)cc1)[C@@H]1CCc2nccc(=O)n21 [Vibegron, (6S)—N-[4-[[(2S,5R)-5-[(R)-hydroxy(phenyl)methyl]pyrrolidin-2-yl]methyl]phenyl]-4-oxo-7,8-dihydro-6H-pyrrolo[1,2-a]pyrimidine-6-carboxamide], which “Apparent terminal t1/2” value [1] is on record?
**A.** 92.5 (9.37%) hr

**Q.** And the “Urgency Incontinence Episodes daily number, Week 8 mean” value ([2]; vibegron 15 mg QD)?
**A.** 1.12

**Q.** What about the “Total Incontinence Episodes daily number, Week 8 mean” value ([2]; vibegron 100 mg QD) of the same compound?
**A.** 1.12

**Q.** What about the Accidental overdose ([3]; 3 mg QD) of the same compound?
**A.** 3 (2.1) n (%)

**Q.** What about the Accidental overdose ([3]; 15 mg QD) of the same compound?
**A.** 6 (4.5) n (%)

**Q.** What about the Accidental overdose ([3]; 50 mg QD) of the same compound?
**A.** 4 (2.7) n (%)

**Q.** And the Accidental overdose ([3]; 100 mg QD)?
**A.** 11 (4.2) n (%)

**Q.** And the “≥1 AE” value ([3]; 100 mg QD)?
**A.** 107 (41.0) n (%)

**Q.** And the frequency of injuries ([3]; human, in vivo)?
**A.** 0.9%

**Q.** What about the “SBP and DBP mean changes at Week 1 and mean maximum changes over 8 weeks, difference between placebo and vibegron” value ([4]; 50 mg and 100 mg) of the same compound?
**A.** < 1 mm Hg

**Q.** And the “subjects with a change from baseline in DBP>15 mmHg” value ([4]; 100 mg)?
**A.** 1.3%

**Q.** What about the “HR mean maximum changes over 8 weeks, compared to placebo” value ([4]; in vivo) of the same compound?
**A.** < 2 bpm

**Q.** And the “DBP Change from Baseline [≥] 5 mm Hg, n/N (%)” value ([4]; vibegron 3 mg)?
**A.** 14/140 (10.0) %

**Q.** And the “DBP Change from Baseline [≥] 10 mm Hg, n/N (%)” value ([4]; vibegron 3 mg)?
**A.** 3/140 (2.1) %

**Q.** And the “DBP Change from Baseline ≥15 mm Hg, n/N (%)” value ([4]; vibegron 3 mg)?
**A.** 1/140 (0.7) %

**Q.** And the “HR Change from Baseline [≥] 10 bpm, n/N (%)” value ([4]; vibegron 3 mg)?
**A.** 5/140 (3.6) %

**Q.** And the “HR Change from Baseline ≥5 bpm, n/N (%)” value ([4]; vibegron 3 mg)?
**A.** 16/140 (11.4) %

**Q.** What about the “HR Change from Baseline ≥15 bpm, n/N (%)” value ([4]; vibegron 3 mg) of the same compound?
**A.** 1/140 (0.7) %

**Q.** And the “SBP Change from Baseline [≥] 5 mm Hg, n/N (%)” value ([4]; vibegron 3 mg)?
**A.** 21/140 (15.0) %

**Q.** What about the “SBP Change from Baseline [≥] 10 mm Hg, n/N (%)” value ([4]; vibegron 3 mg) of the same compound?
**A.** 10/140 (7.1) %

**Q.** And the “SBP Change from Baseline ≥15 mm Hg, n/N (%)” value ([4]; vibegron 3 mg)?
**A.** 4/140 (2.9) %

**Q.** And the “DBP Change from Baseline, Mean (95% CI) Max” value (shortened to “DBP Change … (95% CI) Max”) ([4]; vibegron 3 mg)?
**A.** 5.03 (3.92, 6.15) mm Hg

**Q.** And the “HR Change from Baseline, Mean (95% CI) Maximum” value (shortened to “HR Change … (95% CI) Maximum”) ([4]; vibegron 3 mg)?
**A.** 5.57 (4.25, 6.90) bpm

**Q.** And the “SBP Change from Baseline, Mean (95% CI) Maximum” value (from here on “SBP Change … (95% CI) Maximum”) ([4]; vibegron 3 mg)?
**A.** 7.14 (5.18, 9.10) mm Hg

**Q.** And the “DBP Change from Baseline, Mean (95% CI) (week 1)” value (from here on “DBP Change … (95% CI) (week 1)”) ([4]; vibegron 3 mg)?
**A.** −0.37 (−1.69, 0.95) mm Hg

**Q.** What about the “HR Change from Baseline, Mean (95% CI) (week 1)” value (shortened to “HR Change … (95% CI) (week 1)”) ([4]; vibegron 3 mg) of the same compound?
**A.** 0.36 (−0.90, 1.62) bpm

**Q.** And the “SBP Change from Baseline, Mean (95% CI) (week 1)” value ([4]; vibegron 3 mg)?
**A.** −0.35 (−2.34, 1.65) mm Hg

**Q.** And the “subjects with orthostatic related AEs” value ([4]; vibegron 15 mg group)?
**A.** 0.3%

**Q.** What about the “DBP Change from Baseline [≥] 5 mm Hg, n/N (%)” value ([4]; vibegron 15 mg) of the same compound?
**A.** 15/132 (11.4) %

**Q.** And the “DBP Change from Baseline [≥] 10 mm Hg, n/N (%)” value ([4]; vibegron 15 mg)?
**A.** 3/132 (2.3) %

**Q.** And the “DBP Change from Baseline ≥15 mm Hg, n/N (%)” value ([4]; vibegron 15 mg)?
**A.** 1/132 (0.8) %

**Q.** What about the “HR Change from Baseline [≥] 10 bpm, n/N (%)” value ([4]; vibegron 15 mg) of the same compound?
**A.** 4/132 (3.0) %

**Q.** And the “HR Change from Baseline ≥5 bpm, n/N (%)” value ([4]; vibegron 15 mg)?
**A.** 17/132 (12.9) %

**Q.** And the “HR Change from Baseline ≥15 bpm, n/N (%)” value ([4]; vibegron 15 mg)?
**A.** 1/132 (0.8) %

**Q.** And the “SBP Change from Baseline [≥] 5 mm Hg, n/N (%)” value ([4]; vibegron 15 mg)?
**A.** 22/132 (16.7) %

**Q.** What about the “SBP Change from Baseline [≥] 10 mm Hg, n/N (%)” value ([4]; vibegron 15 mg) of the same compound?
**A.** 9/132 (6.8) %

**Q.** What about the “SBP Change from Baseline ≥15 mm Hg, n/N (%)” value ([4]; vibegron 15 mg) of the same compound?
**A.** 1/132 (0.8) %

**Q.** What about the “DBP Change … (95% CI) Max” value ([4]; vibegron 15 mg) of the same compound?
**A.** 6.37 (5.20, 7.53) mm Hg

**Q.** And the “HR Change … (95% CI) Maximum” value ([4]; vibegron 15 mg)?
**A.** 6.56 (5.20, 7.92) bpm

**Q.** And the “SBP Change … (95% CI) Maximum” value ([4]; vibegron 15 mg)?
**A.** 8.93 (7.18, 10.67) mm Hg

**Q.** What about the “DBP Change … (95% CI) (week 1)” value ([4]; vibegron 15 mg) of the same compound?
**A.** 0.03 (−1.52, 1.59) mm Hg

**Q.** What about the “HR Change … (95% CI) (week 1)” value ([4]; vibegron 15 mg) of the same compound?
**A.** 0.35 (−1.15, 1.85) bpm

**Q.** And the “SBP Change from Baseline, Mean (95% CI) (week 1)” value ([4]; vibegron 15 mg)?
**A.** −0.34 (−2.46, 1.78) mm Hg

**Q.** And the “DBP Change from Baseline [≥] 5 mm Hg, n/N (%)” value ([4]; vibegron 50 mg)?
**A.** 11/144 (7.6) %

**Q.** And the “DBP Change from Baseline [≥] 10 mm Hg, n/N (%)” value ([4]; vibegron 50 mg)?
**A.** 5/144 (3.5) %

**Q.** And the “DBP Change from Baseline ≥15 mm Hg, n/N (%)” value ([4]; vibegron 50 mg)?
**A.** 1/144 (0.7) %

**Q.** What about the “HR Change from Baseline [≥] 10 bpm, n/N (%)” value ([4]; vibegron 50 mg) of the same compound?
**A.** 4/144 (2.8) %

**Q.** What about the “HR Change from Baseline ≥5 bpm, n/N (%)” value ([4]; vibegron 50 mg) of the same compound?
**A.** 12/144 (8.3) %

**Q.** And the “HR Change from Baseline ≥15 bpm, n/N (%)” value ([4]; vibegron 50 mg)?
**A.** 1/144 (0.7) %

**Q.** And the “SBP Change from Baseline [≥] 5 mm Hg, n/N (%)” value ([4]; vibegron 50 mg)?
**A.** 24/144 (16.7) %

**Q.** What about the “SBP Change from Baseline [≥] 10 mm Hg, n/N (%)” value ([4]; vibegron 50 mg) of the same compound?
**A.** 14/144 (9.7) %

**Q.** And the “SBP Change from Baseline ≥15 mm Hg, n/N (%)” value ([4]; vibegron 50 mg)?
**A.** 3/144 (2.1) %

**Q.** And the “DBP Change … (95% CI) Max” value ([4]; vibegron 50 mg)?
**A.** 4.19 (3.10, 5.29) mm Hg

**Q.** What about the “HR Change … (95% CI) Maximum” value ([4]; vibegron 50 mg) of the same compound?
**A.** 5.49 (4.28, 6.69) bpm

**Q.** What about the “SBP Change … (95% CI) Maximum” value ([4]; vibegron 50 mg) of the same compound?
**A.** 7.01 (5.31, 8.70) mm Hg

**Q.** And the “DBP Change … (95% CI) (week 1)” value ([4]; vibegron 50 mg)?
**A.** −0.70 (−2.07, 0.67) mm Hg

**Q.** What about the “HR Change … (95% CI) (week 1)” value ([4]; vibegron 50 mg) of the same compound?
**A.** 0.29 (−0.88, 1.46) bpm
